≈ marks a conversion by molar mass, not a printed value. Where “and” joins values, the source holds several entries; their conditions need not be identical. Identical values can stand only once.
Assays:
Assay in all cases: ≥ marks a high value that may be exact or a test limit, other limits are often not marked, values filed in µg/mL are converted to µM
Escherichia coli AB94012 = tested on: Escherichia coli AB94012
[1] = tested on: Escherichia coli ATCC 25922
[2] = tested on: Pseudomonas aeruginosa ATCC 27853
[3] = tested on: Pseudomonas aeruginosa ATCC 9027
[4] = tested on: Staphylococcus aureus AB6538
[5] = tested on: Staphylococcus aureus 113
[6] = tested on: Staphylococcus aureus 725
[7] = tested on: Staphylococcus aureus 794
[8] = tested on: Staphylococcus aureus 936
[9] = tested on: Staphylococcus aureus ATCC 25923
[10] = tested on: Staphylococcus aureus ATCC 33591
Staphylococcus aureus MR = tested on: Staphylococcus aureus MR
[11] = tested on: Bacillus subtilis CMCC 63501
[12] = tested on: Escherichia coli CICC 10670
[13] = tested on: Listeria monocytogenes ATCC 19115
[14] = tested on: Salmonella enterica subsp. enterica serovar Typhimurium ATCC 14028
[15] = tested on: Staphylococcus aureus ATCC 6538
[16] = tested on: Acinetobacter baumannii ATCC 19606
[17] = tested on: Escherichia coli D31 CGSC 5165
[18] = tested on: Pseudomonas aeruginosa ATCC 47085
[19] = tested on: Staphylococcus aureus ATCC 35556
[20] = tested on: Escherichia coli ATCC 11229
[21] = tested on: Escherichia coli ATCC 35218
[22] = tested on: Klebsiella pneumoniae ATCC 13866
[23] = tested on: Salmonella enterica serovar Typhimurium
[24] = tested on: Staphylococcus aureus ATCC 29213
[25] = tested on: Staphylococcus epidermidis ATCC 12228
[26] = tested on: Aspergillus oryzae NBRC 100959
[27] = tested on: Candida viswanathii NBRC 10321
[28] = tested on: Escherichia coli NBRC 3972
[29] = tested on: Micrococcus luteus NBRC 3333
[30] = tested on: Pseudomonas putida NBRC 100650
[31] = tested on: Staphylococcus epidermidis NBRC 12993
[32] = tested on: Bacillus subtilis ATCC 6633
[33] = tested on: Candida albicans 08030401
[34] = tested on: Candida albicans 08032815
[35] = tested on: Candida albicans ATCC 10231
[36] = tested on: Candida albicans ATCC 2002
Bacillus subtilis = tested on: Bacillus subtilis
Candida albicans SC5314 = tested on: Candida albicans SC5314
[37] = tested on: Escherichia coli BNCC 133264
Escherichia coli = tested on: Escherichia coli
Listeria monocytogenes = tested on: Listeria monocytogenes
[38] = tested on: Pseudomonas aeruginosa BNCC 125486
[39] = tested on: Staphylococcus aureus ATCC 2592
[40] = tested on: Staphylococcus aureus BNCC 186335
Staphylococcus aureus = tested on: Staphylococcus aureus

CC[C@H](C)[C@H](NC(=O)[C@H](CCCCN)NC(=O)[C@@H]1CCCN1C(=O)[C@H](CC(C)C)NC(=O)[C@@H](NC(=O)[C@H](CCCCN)NC(=O)CNC(=O)[C@H](CC(C)C)NC(=O)[C@@H](NC(=O)[C@H](CCCCN)NC(=O)CNC(=O)[C@H](CC(C)C)NC(=O)[C@H](CC(C)C)NC(=O)CNC(=O)[C@H](CC(C)C)NC(=O)[C@@H](N)Cc1ccccc1)C(C)C)C(C)C)C(=O)N[C@@H](Cc1ccccc1)C(=O)N[C@@H](CCCCN)C(N)=O [FLGLLGKVLGKVLPKIFK]
MIC (Escherichia coli AB94012): 6.34 µM (≈ 12.5 µg/mL)
MIC [1]: 12.7 µM (≈ 25 µg/mL)
MIC [2]: 12.7 µM (≈ 25 µg/mL)
MIC [3]: 12.7 µM and 25.4 µM
MIC [4]: 3.17 µM (≈ 6.25 µg/mL)

CC(C)C[C@H](NC(=O)[C@@H](NC(=O)[C@H](CCCCN)NC(=O)[C@H](CCCCN)NC(=O)[C@H](Cc1c[nH]c2ccccc12)NC(=O)[C@H](CC(C)C)NC(=O)[C@H](CCCN=C(N)N)NC(=O)[C@H](CC(C)C)NC(=O)[C@H](C)NC(=O)[C@H](CCCCN)NC(=O)CNC(=O)[C@H](CC(C)C)NC(=O)[C@H](CC(C)C)NC(=O)[C@H](CO)NC(=O)CNC(=O)[C@H](Cc1ccccc1)NC(=O)CN)C(C)C)C(N)=O [GFGSLLGKALRLWKKVL]
MIC [5]: 4.24 µM (≈ 8 µg/mL)
MIC [6]: 4.24 µM (≈ 8 µg/mL)
MIC [7]: 4.24 µM (≈ 8 µg/mL)
MIC [8]: 4.24 µM (≈ 8 µg/mL)
MIC [9]: 2.12 µM and 4.24 µM
MIC [10]: 4.24 µM (≈ 8 µg/mL)
MIC (Staphylococcus aureus MR): 4.24 µM (≈ 8 µg/mL)

CC[C@H](C)[C@H](NC(=O)CN)C(=O)N[C@H](C(=O)N[C@@H](CC(=O)O)C(=O)N[C@@H](CC(C)C)C(=O)N[C@@H](CCCN=C(N)N)C(=O)NCC(=O)N[C@@H](CCSC)C(=O)N[C@@H](CC(C)C)C(=O)N[C@@H](CCCCN)C(=O)N[C@@H](CCCN=C(N)N)C(=O)N[C@@H](CC(C)C)C(=O)N[C@@H](CCCCN)C(=O)N[C@@H](CCCCN)C(=O)N[C@@H](CCSC)C(=O)N[C@@H](CCCCN)C(=O)O)[C@@H](C)O [GITDLRGMLKRLKKMK]
MIC [11]: 5 µM (≈ 9.44 µg/mL)
MIC [12]: 2.5 µM (≈ 4.72 µg/mL)
MIC [13]: 2.5 µM (≈ 4.72 µg/mL)
MIC [14]: 5 µM (≈ 9.44 µg/mL)
MIC [15]: 2.5 µM (≈ 4.72 µg/mL)

CC[C@H](C)[C@H](NC(=O)[C@H](CCCCN)NC(=O)CNC(=O)[C@H](CC(C)C)NC(=O)[C@@H](NC(=O)[C@H](C)NC(=O)[C@H](CCCCN)NC(=O)CNC(=O)[C@H](C)NC(=O)CNC(=O)[C@H](CCCCN)NC(=O)[C@H](CCSC)NC(=O)[C@H](CCCCN)NC(=O)[C@@H](NC(=O)[C@H](Cc1c[nH]c2ccccc12)NC(=O)[C@H](CC(C)C)NC(=O)[C@H](CCC(=O)O)NC(=O)[C@H](CCCCN)NC(=O)[C@H](CC(C)C)NC(=O)[C@@H](N)CC(C)C)[C@@H](C)O)C(C)C)C(=O)N[C@@H](CCCCN)C(=O)NCC(=O)N[C@@H](CC(C)C)C(=O)N[C@@H](CC(C)C)C(=O)O [LLKELWTKMKGAGKAVLGKIKGLL]
MIC [16]: 1 µM (≈ 2.6 µg/mL)
MIC [17]: 0.94 µM (≈ 2.44 µg/mL)
MIC [18]: 15 µM (≈ 38.9 µg/mL)
MIC [19]: 15 µM (≈ 38.9 µg/mL)

CC[C@H](C)[C@H](NC(=O)[C@H](CCCN=C(N)N)NC(=O)[C@@H](N)CCSC)C(=O)NCC(=O)N[C@@H](CC(C)C)C(=O)N[C@@H](CCCN=C(N)N)C(=O)N[C@@H](Cc1ccccc1)C(=O)N[C@H](C(=O)N[C@@H](CC(C)C)C(=O)N[C@@H](CCSC)C(=O)O)C(C)C [MRIGLRFVLM]
MIC [20]: 12.9 µM (≈ 16 µg/mL)
MIC [21]: ≥ 104 µM
MIC [22]: 25.9 µM (≈ 32 µg/mL)
MIC [2]: 12.9 µM (≈ 16 µg/mL)
MIC [23]: ≥ 104 µM
MIC [24]: 104 µM (≈ 128 µg/mL)
MIC [10]: ≥ 104 µM
MIC [25]: 12.9 µM (≈ 16 µg/mL)

CC[C@H](C)[C@H](NC(=O)[C@H](CCCCN)NC(=O)[C@@H](N)CCCN=C(N)N)C(=O)N[C@@H](CCCCN)C(=O)N[C@@H](CCCN=C(N)N)C(=O)N[C@@H](Cc1ccc(O)cc1)C(=O)N[C@@H](CC(C)C)C(=O)N[C@@H](CCCN=C(N)N)C(=O)N[C@@H](CCCN=C(N)N)C(=O)N[C@@H](CCSC)C(=O)N[C@@H](CCCCN)C(=O)O [RKIKRYLRRMK]
MIC [26]: ≥ 129 µM
MIC [27]: ≥ 258 µM
MIC [28]: ≥ 64.6 µM
MIC [29]: ≥ 129 µM
MIC [30]: ≥ 258 µM
MIC [31]: ≥ 64.6 µM

NCCCC[C@H](NC(=O)[C@H](CCCCN)NC(=O)[C@H](Cc1c[nH]c2ccccc12)NC(=O)[C@H](Cc1c[nH]c2ccccc12)NC(=O)[C@H](CCCCN)NC(=O)[C@H](Cc1ccccc1)NC(=O)[C@H](CCCN=C(N)N)NC(=O)[C@H](Cc1c[nH]c2ccccc12)NC(=O)[C@@H](N)CCCN=C(N)N)C(=O)O [RWRFKWWKK]
MIC [32]: 26.4 µM (≈ 37.5 µg/mL)
MIC [33]: 13 µM (≈ 18.5 µg/mL)
MIC [34]: 13 µM (≈ 18.5 µg/mL)
MIC [35]: 13 µM (≈ 18.5 µg/mL)
MIC [36]: 13 µM (≈ 18.5 µg/mL)
MIC [1]: 26.4 µM (≈ 37.5 µg/mL)
MIC [9]: 26.4 µM (≈ 37.5 µg/mL)

CC(C)[C@H](N)C(=O)N[C@@H](CCCCN)C(=O)N[C@@H](CCCN=C(N)N)C(=O)N[C@@H](Cc1ccccc1)C(=O)N[C@@H](CCCCN)C(=O)N[C@@H](CCCCN)C(=O)N[C@@H](Cc1ccccc1)C(=O)N[C@@H](Cc1ccccc1)C(=O)N[C@@H](CCCN=C(N)N)C(=O)N[C@@H](CCCCN)C(=O)N[C@@H](Cc1ccccc1)C(=O)N[C@@H](CCCCN)C(=O)N[C@@H](CCCCN)C(=O)N[C@@H](Cc1ccccc1)C(=O)N[C@H](C(N)=O)C(C)C [VKRFKKFFRKFKKFV]
MIC (Bacillus subtilis): 9.2 µM (≈ 18.7 µg/mL)
MIC (Candida albicans SC5314): 4.6 µM (≈ 9.35 µg/mL)
MIC [1]: 4.6 µM (≈ 9.35 µg/mL)
MIC [37]: 0.984 µM (≈ 2 µg/mL)
MIC (Escherichia coli): 7.87 µM (≈ 16 µg/mL)
MIC (Listeria monocytogenes): 7.87 µM (≈ 16 µg/mL)
MIC [38]: 3.93 µM (≈ 8 µg/mL)
MIC [39]: 9.2 µM (≈ 18.7 µg/mL)
MIC [40]: 1.97 µM (≈ 4 µg/mL)
MIC (Staphylococcus aureus): 3.93 µM (≈ 8 µg/mL)
